According to the supplement of paper PMC10883282:

Legend:
Assay in all cases: relative viability vs DMSO control (72 h) (fraction); higher = more viable cells
A204 = test system: A204
How it was run: (§1)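 Sarcoma cell lines were grown in 384-well plates seeded toward 80–90% confluence and exposed 24 h later to serially diluted compound. After 72 h at 37 °C and 5% CO2, with 0.1% DMSO vehicle and a 5 µM positive control on the plates, ATPLite was read. Relative viability, given as percent growth averaged over up to triplicate wells, was rescaled so that 1 is full and 0 is none.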

HS729 = test system: HS729
How it was run: as §1

KHOS-240S = test system: KHOS-240S
How it was run: as §1

SW982 = test system: SW982
How it was run: as §1

SYO-1 = test system: SYO-1
How it was run: as §1

N#CCNC(=O)c1ccc(-c2ccnc(Nc3ccc(N4CCOCC4)cc3)n2)cc1 [Momelotinib]
relative viability
Conditions	A204	HS729	KHOS-240S	SW982	SYO-1
0.00017 µM	1.03	1.07	1.05	0.986	1.02
0.00051 µM	1.07	1.04	1.03	1.02	1.02
0.00152 µM	1.05	1.05	1.08	1.025	1.01
0.00457 µM	1.05	1.06	1.05	1.02	1.02
0.01372 µM	1.04	1.01	1.08	0.983	0.985
0.04115 µM	1.06	1.01	1.03	1	1.01
0.1235 µM	0.993	0.995	0.992	0.987	0.933
0.3704 µM	0.774	0.939	0.92	0.841	0.809
1.111 µM	0.646	0.859	0.789	0.604	0.643
3.333 µM	0.498	0.777	0.768	0.548	0.503
10 µM	0.284	0.741	0.725	0.436	0.289

Cc1ccc(Nc2nccc(N(C)c3ccc4c(C)n(C)nc4c3)n2)cc1S(N)(=O)=O [Pazopanib]
relative viability
Conditions	A204	HS729	KHOS-240S	SW982	SYO-1
0.00017 µM	1.03	0.9	1.03	1.04	0.919
0.00051 µM	1.06	0.922	1.04	1.01	0.901
0.00152 µM	1.06	0.876	1.05	1.03	0.882
0.00457 µM	1.03	0.879	1.04	1.03	0.862
0.01372 µM	0.977	0.917	1.03	1.05	0.823
0.04115 µM	0.928	0.8727	1.02	1.05	0.777
0.1235 µM	0.611	0.843	0.975	1.03	0.685
0.3704 µM	0.348	0.793	0.974	1.04	0.576
1.111 µM	0.342	0.724	0.932	1.06	0.506
3.333 µM	0.294	0.7	0.88	1.016	0.471
10 µM	0.243	0.554	0.621	0.729	0.369

CCN1C(=O)N(c2c(F)c(OC)cc(OC)c2F)Cc2cnc3[nH]c(CN4CCOCC4)cc3c21 [Pemigatinib]
relative viability
Conditions	A204	HS729	KHOS-240S	SW982	SYO-1
0.00017 µM	1.04	1	1.03	0.989	0.97
0.00051 µM	1.02	0.95	1.03	0.978	0.962
0.00152 µM	0.98	0.912	0.999	0.98	0.89
0.00457 µM	0.991	0.92	1	1	0.86
0.01372 µM	0.843	0.843	0.943	0.985	0.774
0.04115 µM	0.709	0.751	0.917	0.979	0.763
0.1235 µM	0.599	0.644	0.884	0.992	0.733
0.3704 µM	0.565	0.622	0.862	0.968	0.725
1.111 µM	0.516	0.544	0.841	0.715	0.687
3.333 µM	0.379	0.484	0.789	0.511	0.652
10 µM	0.333	0.444	0.687	0.438	0.635

COc1cc(OC)c(/C=C/S(=O)(=O)Cc2ccc(OC)c(NCC(=O)O)c2)c(OC)c1 [Rigosertib]
relative viability
Conditions	A204	HS729	KHOS-240S	SW982	SYO-1
0.00017 µM	1.08	0.973	1.06	1.06	0.957
0.00051 µM	1.06	0.989	1.07	1.04	0.982
0.00152 µM	1.08	0.934	1.051	1.05	0.96
0.00457 µM	1.0898	0.938	1.05	1.07	0.961
0.01372 µM	1.09	1.02	1.03	1.07	0.942
0.04115 µM	1.07	0.966	0.981	1.06	0.966
0.1235 µM	1.01	0.928	0.385	0.92	0.941
0.3704 µM	0.672	0.85	0.228	0.52	0.896
1.111 µM	0.398	0.625	0.168	0.26	0.3561
3.333 µM	0.319	0.579	0.15	0.256	0.287
10 µM	0.248	0.517	0.135	0.273	0.305

COCCNc1cc(NC(=O)N2CCCc3cc(CN4CCN(C)CC4=O)c(C=O)nc32)ncc1C#N [Roblitinib]
relative viability
Conditions	A204	HS729	KHOS-240S	SW982	SYO-1
0.00017 µM	1.05	0.894	1.04	1.013	0.933
0.00051 µM	1.09	0.906	1.04	0.995	0.931
0.00152 µM	1.03	0.906	1.026	0.991	0.9221
0.00457 µM	1.08	0.894	1.04	1.03	0.92
0.01372 µM	1.06	0.891	1.02	0.992	0.914
0.04115 µM	1.07	0.876	1.03	1.03	0.889
0.1235 µM	1.04	0.858	1.035	0.992	0.879
0.3704 µM	1.02	0.858	1.03	1.03	0.855
1.111 µM	1.03	0.849	1	1.03	0.867
3.333 µM	0.922	0.892	0.963	1.01	0.845
10 µM	0.812	0.914	0.967	0.9846	0.87
